Results from BindingDB's records for patent US9675571 (Bristol-Myers Squibb, 2017).

Target: Indoleamine 2,3-dioxygenase 1 (Homo sapiens, UniProt P14902)
Test: IDO Kynurenine Assay
Settings: 25 °C
Protocol: Human IDO1/HEK293 cells were seeded at 10,000 cells per 50 uL per well with RPMI/phenol red free media contains 10% FBS in a 384-well black wall clear bottom tissue culture plate (Matrix Technologies LLC) 125 nL of certain concentration of compound was then added to each well using ECHO liquid handling systems. The cells were incubated for 20 hours in 37° C. incubator with 5% CO2. The compound treatments were stopped by adding Trichloroacetic Acid (Sigma-Aldrich) to a final concentration at 0.2%. The cell plate was further incubated at 50° C. for 30 minute. The equal volume supernatant (20 uL) and 0.2% (w/v) Ehrlich reagent (4-dimethylaminobenzaldehyde, Sigma-Aldrich) in glacial acetic acid were mixed in a new clear bottom 384-well plate. This plate was then incubated at room temperature for 30 minute. The absorbance at 490 nm was measured on Envision plate reader.

Indoleamine 2,3-dioxygenase 1, sequence (P14902 whole entry): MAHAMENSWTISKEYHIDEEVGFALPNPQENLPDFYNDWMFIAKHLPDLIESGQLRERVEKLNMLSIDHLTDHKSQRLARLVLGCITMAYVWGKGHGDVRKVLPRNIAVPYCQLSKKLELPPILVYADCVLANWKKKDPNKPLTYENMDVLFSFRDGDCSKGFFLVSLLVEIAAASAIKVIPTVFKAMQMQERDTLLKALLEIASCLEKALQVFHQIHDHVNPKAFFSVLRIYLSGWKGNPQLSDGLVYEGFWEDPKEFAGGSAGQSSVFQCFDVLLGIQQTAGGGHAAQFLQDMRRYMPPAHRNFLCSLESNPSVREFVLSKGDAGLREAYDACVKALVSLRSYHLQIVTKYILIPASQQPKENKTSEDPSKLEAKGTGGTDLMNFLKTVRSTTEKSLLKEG

EC50: 500 pM
Compound: Cc1cc(NC(=O)Nc2cc([C@H]3C[C@H]3C(=O)O)ccc2N(CC(C)C)C2CCCCC2)on1 [US9675571, 129]
